Assay results: ChEMBL document CHEMBL5523736, “The First Discovery of Marine Polyoxygenated Cembranolides as Potential Agents for the Treatment of Ulcerative Colitis” (J Med Chem, 2024)
Calls of active or inactive are those of the source. The rule behind the calls is not given here.

Tests used:
Mus musculus [1] = experiment: Antiinflammatory activity against DSS-induced ulcerative colitis C57BL/6J mouse model assessed as increase in CLAUDIN-1 protein level in colon at 15 mg/kg, po administered for 8 days by Western blot analysis; format: functional, organism-based; conditions: time 8.0 day
Mus musculus [2] = experiment: Antiinflammatory activity against DSS-induced ulcerative colitis C57BL/6J mouse model assessed as reduction in H and E histopathological score at 15 mg/kg, po administered for 8 days by H and E staining based analysis; format: functional, organism-based; conditions: time 8.0 day
RAW264.7 [3] = experiment: Inhibition of NF-kappaB transcriptional activity in LPS-induced mouse RAW264.7 cells at 20 uM by luciferase based assay; format: cell-based
Mus musculus [4] = experiment: Antiinflammatory activity against DSS-induced ulcerative colitis C57BL/6J mouse model assessed as reduction in IL-1beta mRNA expression level in colon at 15 mg/kg, po administered for 8 days by qRT-PCR analysis; format: functional, organism-based; conditions: time 8.0 day
Mus musculus [5] = experiment: Antiinflammatory activity against DSS-induced ulcerative colitis C57BL/6J mouse model assessed as increase in OCCLUDIN protein level in colon at 15 mg/kg, po administered for 8 days by Western blot analysis; format: functional, organism-based; conditions: time 8.0 day
[6] = Cytotoxicity against mouse RAW264.7 cells assessed as cell viability at 20 uM incubated for 24 hrs by CCK8 assay relative to control; format: toxicity, cell-based; conditions: read-out: Activity
Mus musculus [7] = experiment: Antiinflammatory activity against DSS-induced ulcerative colitis C57BL/6J mouse model assessed as reduction in TNF-alpha mRNA expression level in colon at 15 mg/kg, po administered for 8 days by qRT-PCR analysis; format: functional, organism-based; conditions: time 8.0 day
Mus musculus [8] = experiment: Antiinflammatory activity against DSS-induced ulcerative colitis C57BL/6J mouse model assessed as reduction in Ccl2 mRNA expression level in colon at 15 mg/kg, po administered for 8 days by qRT-PCR analysis; format: functional, organism-based; conditions: time 8.0 day
Mus musculus [9] = experiment: Antiinflammatory activity against DSS-induced ulcerative colitis C57BL/6J mouse model assessed as reduction in inflammatory cell infiltration in colon at 15 mg/kg, po administered for 8 days by Hand E staining based histopathological analysis; format: functional, organism-based; conditions: time 8.0 day
Mus musculus [10] = experiment: Antiinflammatory activity against DSS-induced ulcerative colitis C57BL/6J mouse model assessed as reduction in goblet cell loss in colon at 15 mg/kg, po administered for 8 days by alcian blue staining based analysis; format: functional, organism-based; conditions: time 8.0 day
Mus musculus [11] = experiment: Antiinflammatory activity against DSS-induced ulcerative colitis C57BL/6J mouse model assessed as increase in […] protein level in colon at 15 mg/kg, po administered for 8 days by Western blot analysis; format: functional, organism-based; conditions: time 8.0 day
Mus musculus [12] = experiment: Antiinflammatory activity against DSS-induced ulcerative colitis C57BL/6J mouse model assessed as reduction in iNOS mRNA expression level in colon at 15 mg/kg, po administered for 8 days by qRT-PCR analysis; format: functional, organism-based; conditions: time 8.0 day
[13] = molecular target: Transcription factor p65 (Mus musculus) (UniProt Q04207); experiment: Inhibition of p65 activation in LPS-induced mouse RAW264.7 cells at 20 uM by Western blot analysis; format: cell-based
RAW264.7 [14] = experiment: Antiinflammatory activity in LPS-induced mouse RAW264.7 cells assessed as reduction in IL-6 mRNA expression level at 20 uM by qRT-PCR analysis; format: functional, cell-based
RAW264.7 [15] = experiment: Antiinflammatory activity in LPS-induced mouse RAW264.7 cells assessed as reduction in IL-1beta mRNA expression level at 20 uM by qRT-PCR analysis; format: functional, cell-based
Mus musculus [16] = experiment: Antiinflammatory activity against DSS-induced ulcerative colitis C57BL/6J mouse model assessed as reduction in intestinal epithelial destruction in colon at 15 mg/kg, po administered for 8 days by Hand E staining based histopathological analysis; format: functional, organism-based; conditions: time 8.0 day
Mus musculus [17] = experiment: Antiinflammatory activity against DSS-induced ulcerative colitis C57BL/6J mouse model assessed as reduction in DAI score at 15 mg/kg, po administered for 8 days; format: functional, organism-based; conditions: time 8.0 day
[18] = molecular target: c-Jun N-terminal kinase (Mus musculus) (UniProt Q91Y86+Q9WTU6+Q61831); experiment: Inhibition of JNK phosphorylation in LPS-induced mouse RAW264.7 cells at 20 uM by Western blot analysis; format: cell-based
Mus musculus [19] = experiment: Effect on DSS-induced body weight loss in ulcerative colitis male C57BL/6J mouse model at 15 mg/kg, po administered for 8 days; format: functional, organism-based; conditions: time 8.0 day
RAW264.7 [20] = experiment: Antiinflammatory activity in LPS-induced mouse RAW264.7 cells assessed as reduction in TNF-alpha mRNA expression level at 20 uM by qRT-PCR analysis; format: functional, cell-based
RAW264.7 [21] = experiment: Antiinflammatory activity in LPS-induced mouse RAW264.7 cells assessed as inhibition of IL-6 production at 20 uM by ELISA; format: functional, cell-based
RAW264.7 [22] = experiment: Inhibition of ERK phosphorylation in LPS-induced mouse RAW264.7 cells at 20 uM by Western blot analysis; format: cell-based
RAW264.7 [23] = experiment: Antiinflammatory activity in mouse RAW264.7 cells assessed as inhibition of LPS-induced NO production at 20 uM incubated for 24 hrs relative to control; format: functional
RAW264.7 [24] = experiment: Antiinflammatory activity in mouse RAW264.7 cells assessed as inhibition of LPS-induced NO production incubated for 24 hrs; format: functional, cell-based; conditions: RAW264.7, 24 h
RAW264.7 [25] = experiment: Antiinflammatory activity in LPS-induced mouse RAW264.7 cells assessed as reduction in iNOS mRNA expression level at 20 uM by qRT-PCR analysis; format: functional, cell-based
RAW264.7 [26] = experiment: Antiinflammatory activity in LPS-induced mouse RAW264.7 cells assessed as inhibition of TNF-alpha production at 20 uM by ELISA; format: functional, cell-based
RAW264.7 [27] = experiment: Inhibition of P38 phosphorylation in LPS-induced mouse RAW264.7 cells at 20 uM by Western blot analysis; format: cell-based
RAW264.7 [28] = experiment: Antiinflammatory activity in LPS-induced mouse RAW264.7 cells assessed as reduction in Ccl2 gene expression by heat map analysis; format: functional, cell-based
RAW264.7 [29] = experiment: Antiinflammatory activity in LPS-induced mouse RAW264.7 cells assessed as reduction in Cxcl10 gene expression by heat map analysis; format: functional, cell-based
RAW264.7 [30] = experiment: Antiinflammatory activity in LPS-induced mouse RAW264.7 cells assessed as reduction in Ccl7 gene expression by heat map analysis; format: functional, cell-based
RAW264.7 [31] = experiment: Antiinflammatory activity in LPS-induced mouse RAW264.7 cells assessed as reduction in IL-1beta gene expression by heat map analysis; format: functional, cell-based
RAW264.7 [32] = experiment: Antiinflammatory activity in LPS-induced mouse RAW264.7 cells assessed as reduction in IL-6 gene expression by heat map analysis; format: functional, cell-based
Mus musculus [33] = experiment: Effect on DSS-induced body weight loss in ulcerative colitis male C57BL/6J mouse model at 100 mg/kg, po administered for 8 days; format: functional, organism-based; conditions: time 8.0 day

Chain of Transcription factor p65 (Mus musculus) (Q04207 whole entry): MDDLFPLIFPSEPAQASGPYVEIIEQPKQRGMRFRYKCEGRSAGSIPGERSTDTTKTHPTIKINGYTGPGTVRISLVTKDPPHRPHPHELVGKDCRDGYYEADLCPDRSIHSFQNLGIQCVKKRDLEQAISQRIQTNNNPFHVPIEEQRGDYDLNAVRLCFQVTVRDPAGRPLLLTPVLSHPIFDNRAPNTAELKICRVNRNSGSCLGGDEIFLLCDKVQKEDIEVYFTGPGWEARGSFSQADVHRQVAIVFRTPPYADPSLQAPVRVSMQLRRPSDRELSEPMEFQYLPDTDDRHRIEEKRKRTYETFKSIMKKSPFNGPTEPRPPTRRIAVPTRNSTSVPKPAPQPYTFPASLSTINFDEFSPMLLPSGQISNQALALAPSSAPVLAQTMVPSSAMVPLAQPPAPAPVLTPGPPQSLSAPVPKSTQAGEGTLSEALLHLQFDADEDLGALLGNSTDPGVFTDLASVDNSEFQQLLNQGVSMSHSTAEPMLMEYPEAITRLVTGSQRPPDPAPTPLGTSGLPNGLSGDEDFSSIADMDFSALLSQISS
Chain of c-Jun N-terminal kinase (Mus musculus) (Q61831 whole entry, looked up): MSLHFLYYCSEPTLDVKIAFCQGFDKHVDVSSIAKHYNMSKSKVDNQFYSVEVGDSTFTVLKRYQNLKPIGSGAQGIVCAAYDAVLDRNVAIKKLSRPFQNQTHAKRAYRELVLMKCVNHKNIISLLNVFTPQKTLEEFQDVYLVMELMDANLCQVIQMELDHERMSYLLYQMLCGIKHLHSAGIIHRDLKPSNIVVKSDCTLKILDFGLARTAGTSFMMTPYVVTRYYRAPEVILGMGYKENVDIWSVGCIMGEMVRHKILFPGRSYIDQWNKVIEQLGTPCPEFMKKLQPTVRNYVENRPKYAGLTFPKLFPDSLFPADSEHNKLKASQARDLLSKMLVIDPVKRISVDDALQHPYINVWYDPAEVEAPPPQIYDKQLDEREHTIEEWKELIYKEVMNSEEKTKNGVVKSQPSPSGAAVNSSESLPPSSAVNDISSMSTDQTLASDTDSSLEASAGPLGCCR
Chain of c-Jun N-terminal kinase (Mus musculus) (Q91Y86 whole entry, looked up): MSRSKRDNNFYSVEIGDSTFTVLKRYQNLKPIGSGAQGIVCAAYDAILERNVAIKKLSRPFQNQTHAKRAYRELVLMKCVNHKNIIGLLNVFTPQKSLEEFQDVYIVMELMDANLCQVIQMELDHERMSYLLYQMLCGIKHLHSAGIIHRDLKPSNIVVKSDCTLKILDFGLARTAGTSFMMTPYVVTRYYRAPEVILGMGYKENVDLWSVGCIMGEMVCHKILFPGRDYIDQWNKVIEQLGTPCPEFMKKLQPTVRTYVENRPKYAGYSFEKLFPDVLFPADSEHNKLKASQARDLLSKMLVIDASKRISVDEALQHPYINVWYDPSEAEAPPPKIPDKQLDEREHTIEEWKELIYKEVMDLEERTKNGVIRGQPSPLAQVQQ
Chain of c-Jun N-terminal kinase (Mus musculus) (Q9WTU6 whole entry, looked up): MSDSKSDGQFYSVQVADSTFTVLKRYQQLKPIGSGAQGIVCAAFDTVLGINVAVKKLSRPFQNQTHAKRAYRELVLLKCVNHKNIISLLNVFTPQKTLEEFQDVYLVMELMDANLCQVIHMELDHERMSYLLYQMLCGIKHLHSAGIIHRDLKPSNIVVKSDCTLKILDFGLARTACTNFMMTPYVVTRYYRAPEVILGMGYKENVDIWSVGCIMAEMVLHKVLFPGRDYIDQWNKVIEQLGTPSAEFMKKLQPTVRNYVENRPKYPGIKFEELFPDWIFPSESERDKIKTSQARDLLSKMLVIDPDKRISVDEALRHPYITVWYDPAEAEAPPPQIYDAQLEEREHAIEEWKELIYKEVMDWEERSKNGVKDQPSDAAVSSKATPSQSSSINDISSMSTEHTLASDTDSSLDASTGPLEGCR

Row | Compound | Activity (Mus musculus [1]) | Activity (Mus musculus [2]) | inhibition (RAW264.7 [3]) | Activity (Mus musculus [4]) | Activity (Mus musculus [5]) | viability at 24 h, 20 µM [6] | Activity (Mus musculus [7]) | Activity (Mus musculus [8]) | Activity (Mus musculus [9]) | Activity (Mus musculus [10]) | Activity (Mus musculus [11]) | Activity (Mus musculus [12]) | inhibition [13] | Activity (RAW264.7 [14]) | Activity (RAW264.7 [15]) | Activity (Mus musculus [16]) | Activity (Mus musculus [17]) | inhibition [18] | Activity (Mus musculus [19]) | Activity (RAW264.7 [20]) | further results
1 | C=C1C(=O)O[C@]2(C)CC[C@@H]1C[C@@H]1O[C@@]1(C)CC/C=C(\C)CC[C@H]2OC(C)=O | Active | Active | Active | Active | Active | 89% | Active | Active | Active | Active | Active | Active | Active | Active | Active | Active | Active | Active | inactive | Active | Activity (RAW264.7 [21]): Active; inhibition (RAW264.7 [22]): Active; inhibition at 20 µM (RAW264.7 [23]): 139%; IC50 (RAW264.7 [24]): 1150 nM; Activity (RAW264.7 [25]): Active; Activity (RAW264.7 [26]): Active; inhibition (RAW264.7 [27]): inactive
2 | C=C1C(=O)O[C@]2(C)CC[C@@H]1C[C@@H]1O[C@@]1(C)CC/C=C(\C)CCC2=O | Active | Active | Active | Active | Active | 82.7% | Active | Active | Active | Active | Active | Active | Active | Active | Active | Active | Active | Active | inactive | Active | Activity (RAW264.7 [28]): Active; Activity (RAW264.7 [29]): Active; Activity (RAW264.7 [30]): Active; Activity (RAW264.7 [31]): Active; Activity (RAW264.7 [32]): Active; Activity (RAW264.7 [21]): Active; inhibition (RAW264.7 [22]): Active; inhibition at 20 µM (RAW264.7 [23]): 134%; IC50 (RAW264.7 [24]): 900 nM; Activity (RAW264.7 [25]): Active; Activity (RAW264.7 [26]): Active; inhibition (RAW264.7 [27]): inactive
3 | Nc1ccc(O)c(C(=O)O)c1 | – | – | – | – | – | – | – | – | – | – | – | – | – | – | – | – | – | – | – | – | Activity (Mus musculus [33]): inactive
